# In ChEMBL document CHEMBL1201862, “PubChem BioAssay data set” (2004):
#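 Five compound concentrations were applied to cells in 96-well plates for 48 hours; endpoints were derived by simple linear interpolation of the resulting dose-response curve. At the GI50, growth is halved.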 The source made the active and inactive calls. No stated cut-off is given here; in the data, active = GI50 up to about 1.1 µM and inactive = higher.
# Columns and labels:
# Assay in all cases: growth of human tumour cells (NCI), 48 h
# [1] = test system: NCI-H460
# [2] = test system: T47D
# [3] = test system: HCC 2998
# [4] = test system: U-251
# [5] = test system: SNB-75
# [6] = test system: SF-268
# [7] = test system: PC-3
# [8] = test system: UO-31
# [9] = test system: IGROV-1
# [10] = test system: MDA-MB-435
# [11] = test system: A549
# [12] = test system: EKVX
# [13] = test system: SK-OV-3
# [14] = test system: OVCAR-5
# [15] = test system: SK-MEL-28
# [16] = test system: OVCAR-3
# [17] = test system: SW-620
# [18] = test system: HCT-15
# [19] = test system: 786-0
# [20] = test system: BT-549
# [21] = test system: UACC-257
# [22] = test system: RXF 393
# [23] = test system: Hs-578T
# [24] = test system: LOX IMVI
# [25] = test system: SK-MEL-2
# [26] = test system: DU-145
# [27] = test system: NCI/ADR-RES
# [28] = test system: MOLT-4
# [29] = test system: M14
# [30] = test system: SN12C
# [31] = test system: CAKI-1
# [32] = test system: ACHN
# [33] = test system: HT-29
# [34] = test system: COLO 205
# [35] = test system: HOP-92
# [36] = test system: OVCAR-8
# [37] = test system: OVCAR-4
# [38] = test system: KM12
# [39] = test system: SR
# [40] = test system: HOP-62
# [41] = test system: MDA-N
# [42] = test system: HCT-116
# [43] = test system: NCI-H23
# [44] = test system: TK-10
# [45] = test system: MCF7
# [46] = test system: SNB-19
# [47] = test system: MDA-MB-231
# [48] = test system: Malme-3M
# [49] = test system: RPMI-8226
# [50] = test system: CCRF-CEM
# [51] = test system: NCI-H522
# [52] = test system: SF-295
# [53] = test system: A498
# [54] = test system: SF-539
# [55] = test system: SK-MEL-5
# [56] = test system: HL-60
# [57] = test system: K562
smiles,measurement,setting,value
COC(=O)C1C(O)CCC2CN3CCc4c([nH]c5ccccc45)C3CC21 (configuration not stated),GI50,[1],> 100 µM (inactive)
same,GI50,[2],> 100 µM (inactive)
same,GI50,[3],59.4 µM (inactive)
same,GI50,[4],> 100 µM (inactive)
same,GI50,[5],> 100 µM (inactive)
same,GI50,[6],> 100 µM (inactive)
same,GI50,[7],> 100 µM (inactive)
same,GI50,[8],> 100 µM (inactive)
same,GI50,[9],> 100 µM (inactive)
same,GI50,[10],> 100 µM (inactive)
same,GI50,[11],> 100 µM (inactive)
same,GI50,[12],> 100 µM (inactive)
same,GI50,[13],> 100 µM (inactive)
same,GI50,[14],> 100 µM (inactive)
same,GI50,[15],76 µM (inactive)
same,GI50,[16],> 100 µM (inactive)
same,GI50,[17],> 100 µM (inactive)
same,GI50,[18],> 100 µM
same,GI50,[19],> 100 µM (inactive)
same,GI50,[20],> 100 µM (inactive)
same,GI50,[21],> 100 µM (inactive)
CC(=O)c1ccc2c(c1)CC1(C2)Cc2cc3c(cc2C1=O)CCC3 (configuration not stated),GI50,[22],20.8 µM (inactive)
same,GI50,[23],27.6 µM (inactive)
same,GI50,[24],17.7 µM (inactive)
same,GI50,[1],26.1 µM (inactive)
same,GI50,[2],20.5 µM (inactive)
same,GI50,[25],21.7 µM (inactive)
same,GI50,[3],18.6 µM (inactive)
same,GI50,[4],30.3 µM (inactive)
same,GI50,[26],24.3 µM (inactive)
same,GI50,[27],12.2 µM (inactive)
same,GI50,[28],4.28 µM (inactive)
same,GI50,[29],15 µM (inactive)
same,GI50,[30],16.7 µM (inactive)
same,GI50,[31],12.9 µM (inactive)
same,GI50,[32],16.1 µM (inactive)
same,GI50,[5],15.6 µM (inactive)
same,GI50,[6],28.9 µM (inactive)
same,GI50,[33],15.7 µM (inactive)
same,GI50,[34],14.9 µM (inactive)
same,GI50,[7],19.2 µM (inactive)
same,GI50,[35],25.9 µM (inactive)
same,GI50,[36],16.1 µM (inactive)
same,GI50,[37],15.1 µM (inactive)
same,GI50,[8],26.1 µM (inactive)
same,GI50,[38],17.5 µM (inactive)
same,GI50,[9],19.8 µM (inactive)
same,GI50,[39],3.04 µM (inactive)
same,GI50,[40],28 µM (inactive)
same,GI50,[41],14.4 µM (inactive)
same,GI50,[10],17 µM (inactive)
same,GI50,[11],20.9 µM (inactive)
same,GI50,[12],25.2 µM (inactive)
same,GI50,[42],17.5 µM (inactive)
same,GI50,[13],33.6 µM (inactive)
same,GI50,[14],30.6 µM (inactive)
same,GI50,[43],21.5 µM (inactive)
same,GI50,[44],25.7 µM (inactive)
same,GI50,[15],24.6 µM (inactive)
same,GI50,[45],20.8 µM (inactive)
same,GI50,[46],58.9 µM (inactive)
same,GI50,[47],20.6 µM (inactive)
same,GI50,[48],13.3 µM (inactive)
same,GI50,[49],11.1 µM (inactive)
same,GI50,[50],13.3 µM (inactive)
same,GI50,[51],22.7 µM (inactive)
same,GI50,[16],16.1 µM (inactive)
same,GI50,[52],21.8 µM (inactive)
same,GI50,[53],19.5 µM (inactive)
same,GI50,[17],32.6 µM (inactive)
same,GI50,[54],29.9 µM (inactive)
same,GI50,[18],29 µM
same,GI50,[19],19.3 µM (inactive)
same,GI50,[55],10.3 µM (inactive)
same,GI50,[56],14.3 µM (inactive)
same,GI50,[57],16.5 µM (inactive)
same,GI50,[21],15 µM (inactive)
